Consider five molecules from article PMC3821045 (Synapse (New York, N.Y.), 2010).

What all share (format): cell-based
Assay [1] addresses human D3 dopamine receptors (Homo sapiens, UniProt P35462). Briefly: Forskolin-dependent adenylyl cyclase inhibition assay.
In assay [2] the target is human D3 receptors expressed in CHO cells (Homo sapiens, UniProt P35462). In words: Mitogenic assay. The following applies: relative to quinpirole.
Assay [3] deals with human D2 receptors expressed in CHO cells (Homo sapiens, UniProt P14416). In words: Mitogenic assay. The following applies: relative to quinpirole.
Assay [4] addresses human D2 dopamine receptors (Homo sapiens, UniProt P14416). Briefly: Forskolin-dependent adenylyl cyclase inhibition assay.

“Also recorded” adds a separate entry of the source.

Sequence of human D2 receptors expressed in CHO cells (P14416 whole entry): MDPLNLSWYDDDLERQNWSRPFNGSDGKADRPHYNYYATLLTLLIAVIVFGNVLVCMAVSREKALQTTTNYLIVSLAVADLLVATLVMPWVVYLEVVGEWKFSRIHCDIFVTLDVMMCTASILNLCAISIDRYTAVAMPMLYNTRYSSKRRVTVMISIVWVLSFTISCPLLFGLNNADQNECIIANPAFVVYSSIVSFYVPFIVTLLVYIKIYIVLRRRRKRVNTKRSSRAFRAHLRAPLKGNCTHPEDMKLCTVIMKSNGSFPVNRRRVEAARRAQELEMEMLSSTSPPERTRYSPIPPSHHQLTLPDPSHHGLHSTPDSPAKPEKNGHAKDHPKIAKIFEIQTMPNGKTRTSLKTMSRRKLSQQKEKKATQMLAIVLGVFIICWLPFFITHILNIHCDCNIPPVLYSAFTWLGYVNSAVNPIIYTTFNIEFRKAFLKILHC
Sequence of human D3 dopamine receptors (P35462 whole entry): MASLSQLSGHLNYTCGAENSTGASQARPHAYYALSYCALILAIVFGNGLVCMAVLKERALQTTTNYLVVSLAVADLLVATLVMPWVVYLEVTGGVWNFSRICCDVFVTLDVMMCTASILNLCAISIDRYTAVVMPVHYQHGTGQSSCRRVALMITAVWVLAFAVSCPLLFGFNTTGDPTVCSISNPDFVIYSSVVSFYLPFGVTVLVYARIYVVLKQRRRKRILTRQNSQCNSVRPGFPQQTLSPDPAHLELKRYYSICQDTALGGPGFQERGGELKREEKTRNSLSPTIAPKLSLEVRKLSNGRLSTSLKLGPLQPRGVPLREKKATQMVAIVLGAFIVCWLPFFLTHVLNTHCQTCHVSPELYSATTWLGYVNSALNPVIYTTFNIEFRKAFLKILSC
Sequence of human D3 receptors expressed in CHO cells (P35462 whole entry): as above
Sequence of human D2 dopamine receptors (P14416 whole entry): as the sequence (P14416 whole entry) above

As for `O=C(NCCCCN1CCN(c2cccc(Cl)c2Cl)CC1)c1ccc(-c2ccccn2)cc1` [CJB090, N-(4-(4-(2,3-dichlorophenyl)piperazin-1-yl)butyl)-4-(pyridin-2-yl)benzamide], the “efficacy in adenylyl cyclase inhibition assay (in words)” value in assay [1] and in assay [4] was “partial agonist” in each case. Moreover, the “intrinsic efficacy in mitogenic assay (in words)” value (shortened to “intrinsic efficacy”) is recorded as “partial agonist; also recorded: some activity” in assay [2] and “some activity” in assay [3].

On to `O=C(NCCCCN1CCN(c2cccc(Cl)c2Cl)CC1)c1ccc2c(c1)Cc1ccccc1-2` [NGB 2904, reference compound], for which the “efficacy in adenylyl cyclase inhibition assay (in words)” value in assay [1] was “antagonist”. Also, the “intrinsic efficacy” value in assay [2] is “antagonist”.

As to `O=C(NCCCCN1CCN(c2cccc(Cl)c2Cl)CC1)c1ccc(-c2cccnc2)cc1` [PG01042, N-(4-(4-(2,3-dichlorophenyl)piperazin-1-yl)butyl)-4-(pyridin-3-yl)benzamide], the figures for the “efficacy in adenylyl cyclase inhibition assay (in words)” value in assay [1] and in assay [4] were “strong agonist; also recorded: almost full agonist” and “weak partial agonist”, respectively. The “intrinsic efficacy” value in assay [2] and in assay [3] was “partial mitogenic agonist” each time.

Take `COc1ccccc1N1CCN(C/C=C/CNC(=O)c2ccc(-c3cccnc3)cc2)CC1` [PG 845, (E)-N-(4-(4-(2-methoxyphenyl)piperazin-1-yl)but-2-enyl)-4-(pyridin-3-yl)benzamide]: in assay [1], the “efficacy in adenylyl cyclase inhibition assay (in words)” value was “greatest efficacy”.

For the molecule `COc1ccccc1N1CCN(CCCCNC(=O)c2ccc(-c3cccnc3)cc2)CC1` [PG 848, N-(4-(4-(2-methoxyphenyl)piperazin-1-yl)butyl)-4-(pyridin-3-yl)benzamide], the “efficacy in adenylyl cyclase inhibition assay (in words)” value in assay [1] is “greatest efficacy”. Further, the “intrinsic efficacy” value in assay [2] and in assay [3] was “antagonist” in each case.
